In ChEMBL document CHEMBL1144975, “Improving the selectivity of acyclic nucleoside analogues as inhibitors of human mitochondrial thymidine kinase: replacement of a triphenylmethoxy moiety with substituted amines and carboxamides” (Bioorg Med Chem Lett, 2003):
pIC50: −log10 of the molar value.

Target: T1, Thymidine kinase, cytosolic (Homo sapiens, UniProt P04183)
T1 sequence (P04183 whole entry): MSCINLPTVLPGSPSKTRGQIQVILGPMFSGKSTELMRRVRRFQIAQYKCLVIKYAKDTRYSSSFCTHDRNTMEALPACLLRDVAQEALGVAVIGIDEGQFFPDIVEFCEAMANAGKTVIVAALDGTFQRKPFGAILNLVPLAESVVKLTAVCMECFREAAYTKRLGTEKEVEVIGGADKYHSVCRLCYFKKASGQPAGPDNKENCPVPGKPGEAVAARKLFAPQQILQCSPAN
Assay: Inhibitory concentration on phosphorylation of [methyl-3H]-dTh by human Thymidine Kinase 1

For Cc1cn(C/C=C\CN(Cc2ccccc2)Cc2ccccc2)c(=O)[nH]c1=O, the pIC50 was less than 3.30.
